The subject of experiment [1] is 5-LO. The experiment can be described thus: Test g): zymosan-induced liberation of LTB₄ within a subcutaneous air pouch of male rats. It counts as in vivo. The note with it: rat air pouch.
Experiment [2] deals with T1, 5-LO (Homo sapiens, UniProt P09917).
T1 construct: incubating a test compound with heparinised human blood, prior to challenge with the calcium ionophore A23187; endogenous in cells; host or cells: leukocytes in heparinised human whole blood
T1 sequence (P09917 1-674): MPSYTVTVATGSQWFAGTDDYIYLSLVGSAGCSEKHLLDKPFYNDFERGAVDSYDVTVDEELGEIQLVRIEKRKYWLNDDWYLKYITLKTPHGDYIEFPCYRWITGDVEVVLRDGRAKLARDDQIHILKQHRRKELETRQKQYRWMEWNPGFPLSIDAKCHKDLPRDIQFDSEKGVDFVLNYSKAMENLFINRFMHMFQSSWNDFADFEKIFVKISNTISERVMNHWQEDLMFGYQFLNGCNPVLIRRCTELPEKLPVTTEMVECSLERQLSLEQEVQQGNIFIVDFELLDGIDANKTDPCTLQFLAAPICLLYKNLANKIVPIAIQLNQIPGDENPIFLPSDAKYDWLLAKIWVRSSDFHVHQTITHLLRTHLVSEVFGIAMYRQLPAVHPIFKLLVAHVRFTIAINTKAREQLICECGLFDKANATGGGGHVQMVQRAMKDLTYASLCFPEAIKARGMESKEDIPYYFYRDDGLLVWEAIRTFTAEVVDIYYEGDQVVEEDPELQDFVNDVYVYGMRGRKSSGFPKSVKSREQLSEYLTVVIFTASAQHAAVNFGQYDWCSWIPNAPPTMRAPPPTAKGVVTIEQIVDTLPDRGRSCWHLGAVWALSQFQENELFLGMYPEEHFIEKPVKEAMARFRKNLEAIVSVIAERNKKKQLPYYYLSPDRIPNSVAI
Nature of the experiment: Test b): heparinised human blood challenged with calcium ionophore A23187, radioimmunoassay of LTB₄. It counts as cell-based. Conditions: read-out: IC₅₀ (LTB₄).
Description: This test provides a measure of the intrinsic inhibitory properties of a test compound against soluble 5-LO in an extracellular environment. • b) An in vitro assay system involving incubating a test compound with heparinised human blood, prior to challenge with the calcium ionophore A23187 and then indirectly measuring the inhibitory effects on 5-LO by assaying the amount of LTB₄ using specific radioimmunoassays described by Carey and Forder (F. Carey and R.A. Forder, Prostaglandins, Leukotrienes Med., 1986, 22, 57; Prostaglandins, 1984, 28, 666; Brit. J. Pharmacol. 1985, 84, 34P) which involve the use of a protein-LTB₄ conjugate produced using the procedure of Young et alia (Prostaglandins, 1983, 26(4), 605-613). […] This test provides an indication of the effects of a test compound against 5-LO and also cyclooxygenase in the presence of blood cells and proteins.

Regarding `CSC1(c2cccc(OCc3ccc4ccccc4c3)c2)CCOCC1` [Example 1, 4-methylthio-4-[3-(naphth-2-ylmethoxy)phenyl]tetrahydropyran], in the experiment with 5-LO [1], the “oral ED₅₀(LTB₄)” value is listed as 8 mg/kg. Moreover, on 5-LO [2], the IC50 amounted to 50 nM.

The values are drawn from patent EP0462830B1, “Cyclic ether derivatives” (ZENECA LIMITED, priority 1990, dated 1991).
